In paper PMC4099174 (Journal of Medicinal Chemistry, 2014):
Read-outs that look alike come from different tables or passages of the source.

Assays:
[1] = tested on: HepG2 cell line
[2] = tested on: Bloodstream Trypanosoma brucei brucei Lister 427; assay: Trypanosome cell growth dose–response assay (resazurin viability test); format: cell-based
[3] = tested on: Bloodstream form culture of T. b. brucei; assay: Cell cycle analysis by FACS (propidium iodide); format: cell-based, Trypanosoma brucei brucei; conditions: concentration twice the EC50, 18 h
Experimental: For cell cycle analysis, samples (1.5 × 10^6 cells) were collected, centrifuged (1400g at 4 °C for 5 min), and washed in trypanosome dilution buffer (TDB). The cell pellets were gently suspended in 50 μL of TDB and permeabilized by adding 1 μL of saponin (25 mg/mL) for 3 min. It was then mixed with another 450 μL of TDB. RNase and propidium iodide (PI) were added to the suspension at final concentrations of 10 and 20 μg/mL, respectively, and the samples were incubated at room temperature for 30 min and then stored at 4 °C. The DNA content of PI-stained cells and the percentage of cells in each phase of the cell cycle (10 000 cells per sample) were analyzed with a Becton Dickinson FACSCalibur flow cytometer (BD Biosciences) using BD CellQuest Pro version 4.0.2 software.
Figure S3. Cell Cycle analysis of parasites upon dosage with NVP-BEZ235 derivative.
Bloodstream form culture of T. b. brucei was subjected to different drugs and analyzed by
Fluorescencecactivated cell sorter (FACS) for DNA content stained by propidium iodide (PI).
Cell cultures were incubated during 18 h with various NVPcBEZ235 derivatives using DMSO as
a control treatment. Mean ± SD of three independent experiments are shown.

[4] = tested on: bloodstream form of T. brucei; assay: Transferrin uptake (receptor-mediated endocytosis); format: cell-based, Trypanosoma brucei; conditions: concentration twice the EC50, 18 h
Source text: Highly efficient and rapid endocytosis is one of the most important cellular processes for this infective parasite to survive and multiply within the bloodstream of the host, and the activity of TbPI3KIII is essential for this process.[25] To gain insight on the possible target(s) of our compounds, we carried out transferrin uptake experiments to measure receptor-mediated endocytosis after drug treatment. […] Compound 16e induced a phenotype defective in endocytosis (Figure 3); however, the PIP3 molecular species identified (42:7-9) was not the same PIP3 molecular species identified in WT cells (44:9-12).
Two million trypanosomes were harvested and washed with TDB-glucose plus 1% BSA, resuspended in 250 μL in the same buffer, and incubated for 10 min at 37 °C prior to the addition of 5 μg of AlexaFluor 488-conjugated human holo-Tf (Invitrogen). Incubations were carried out for 0 (no Tf) or 3 min at 37 °C, after which cells were immediately fixed in 4 °C in 1% PFA diluted in cold PBS for at least 1 h. Parasites were finally washed twice with PBS and analyzed with a Becton Dickinson FACSCalibur flow cytometer (BD Biosciences) using BD CellQuest Pro version 4.0.2 software.

[5] = tested on: phosphorylated PIs (PIP, PIP3) in T. brucei cells; assay: Phospholipidomics analysis (ES-MS of lipid extracts); format: cell-based, Trypanosoma brucei; conditions: 200 nM, 12 h; negative ion mode scans 950–1300 m/z
Source text: We originally selected 1 to investigate its potential as an trypanocidal agent on the basis of its activity as a PI3K/mTOR inhibitor in mammalian cells and the fact that PI3K activity is essential for the bloodstream form of the T. brucei parasite.[25] In the interest of elucidating the potential mechanism of action against T. brucei cells, we performed a lipidomic analysis to discern if PI kinases are likely targets of these analogues. Lipid extracts of cells grown in the presence of the best compounds at sublethal doses (200 nM) for 12 h were analyzed by ES-MS. […] There were no significant differences in the phosphatidylcholine (PC) and sphingomylein (SM) species between the control and cells grown in the presence of the other compounds (Figure S1). […] Alternatively, as is often the case, changes in the lipid profile could be a reflection in the cells succumbing to (or adapting to) a defect in a major cellular process, such as endo- or exocytosis or cell cycle arrest.
Because these compounds are thought to target PI3K, negative ion mode scans between 950 and 1300 m/z were conducted to focus upon singly and multiply phosphorylated PIs.
Total lipids from mid log phase cells were extracted by the method of Bligh and Dyer.[30] Briefly, mid log phase cells were collected by centrifugation (800g, 10 min), washed with PBS, resuspended in 100 μL of TDB-glucose, transferred to a glass tube containing 375 μL of 1:2 (v/v) CHCl3/MeOH, and vortexed. The sample was agitated vigorously for a further 10–15 min. The sample was made biphasic by the addition of 125 μL of CHCl3 and vortexed, and then 125 μL of H2O was added. The sample was vortexed again and centrifuged at 3000g at rt for 10 min. The lower (organic) phase was transferred into a new glass vial, and the aqueous phase was re-extracted with the fresh lower phase. The resultant lower phase lipid extract was dried under a stream of nitrogen and stored at 4 °C.
Lipid extracts were dissolved in 15 μL of CHCl3/MeOH (1:2) and 15 μL of acetonitrile/isopropanol/water (6:7:2) and analyzed with a triple quadrupole mass spectrometer (Absceix 4000 QTrap) equipped with a nanoelectrospray source. […] The lipid extracts were analyzed in both positive and negative ion modes using a capillary voltage of 1.25 kV. […] Tandem mass spectra (MS/MS) were obtained with collision energies as follows: 35–45 V, PC/SM in positive ion mode, parent-ion scanning of m/z 184; 35–55 V, PI in negative ion mode, parent-ion scanning of m/z 241; 35–65 V, PE in negative ion mode, parent-ion scanning of m/z 196; 20–35 V, PS in negative ion mode, neutral loss scanning of m/z 87; and 40–90 V, for all glycerophospholipids (including PA, PG, and cardiolipin) detected by precursor scanning for m/z 153 in negative ion mode. […]

[6] = ChromlogD assay; format: physicochemical; conditions: pH 7.4
Experimental: page 13: PHYSICOCHEMICAL PROPERTIES ASSAYS […] phosphate buffered saline, equilibrated for 1 hour at room temperature, filtered through Millipore […] filter plates (MSSL BPC). The filtrate is quantified by suitably calibrated flow injection ChemicLuminescent Nitrogen Detection.1 The standard error of the CLND solubility […] DMSO stock solution. GSK inchouse Artificial Membrane Permeability Assay: […] in 1% cholesterol decane solution was applied to a […], 0.4um, PCF culture plate. 250 μL and 100 μL 50 mM phosphate buffer pH 7.4 with 0.5% […] applied to the […] in DMSO was added to the donor compartment. The assay was incubated at RT for 3 hours. Samples from both donor and receiver compartments were analyzed by HPLC with UV detection at 215 and 254 nm and permeability was calculated. The permeability (logPapp) measuring how fast molecules pass through the black lipid membrane is expressed in nm/s. ChromlogD assay. The Chromatographic Hydrophobicity Index (CHI)2 values were measured using reversed phase HPLC column (Luna C18 (2),Phenomenex, UK) with fast acetonitrile gradient at starting mobile phase of pH = 7.4. CHI values are derived directly from the gradient retention times by using a calibration line obtained for standard compounds. The CHI value approximates to the volume % organic concentration when the compound elutes. CHI is linearly transformed into ChromlogD by leastcsquare fitting of experimental CHI values to calculated ClogP values for over 20K research compounds using the following formula: ChromlogD = 0.0857CHIc2.00. The average error of the assay is ±3 CHI unit or ±0.25 ChromlogD. S13

[7] = Table 2, average of two replicates, read-out: T brucei EC50
[8] = Table 4, measured value (outside parentheses)

| Compound | HepG2 TC50 [1] [µM] | EC50 [2, 7] [µM] | cell cycle progression [3] | transferrin uptake / endocytosis [4] | phosphorylated PI (PIP) levels vs control cells [5] | chromatographic logD [6] | chromatographic logD [6, 8] | EC50 ([2]; Trypanosoma brucei, read-out: EC50 against T. brucei) [µM] |
| --- | --- | --- | --- | --- | --- | --- | --- | --- |
| 1-(4-((4-Methylpiperazin-1-yl)methyl)phenyl)-8-(pyridin-4-yl)-1H-imidazo[4,5-c]quinolin-2(3H)-one [Compound 16j] | >7.6 | 3.35 | – | – | – | – | – | – |
| 1-Methyl-8-(pyridin-4-yl)-1H-imidazo[4,5-c]quinolin-2(3H)-one [Compound 16k] | >20 | 3.27 | – | – | – | – | – | – |
| Cn1c(=O)n(-c2ccc(C(C)(C)C#N)cc2)c2c3cc(-c4cnc5ccccc5c4)ccc3ncc21 [Compound 1, NVP-BEZ235, reference compound] | – | – | did not significantly alter cell cycle progression | inhibited endocytosis dramatically | almost complete absence of all phosphorylated PIs | 4.75 | – | – |
| Cc1ccc(-n2c(=O)n(C)c3cnc4ccc(-c5ccncc5)cc4c32)cc1 [Compound 16e, 3-Methyl-8-(pyridin-4-yl)-1-(p-tolyl)-1H-imidazo[4,5-c]quinolin-2(3H)-one] | – | – | did not significantly alter cell cycle progression | inhibited endocytosis dramatically | significant (albeit incomplete) reduction in PIP levels | – | 3.5 | – |
| COc1ccc(-n2c(=O)n(C)c3cnc4ccc(-c5ccncc5)cc4c32)cc1 [Compound 16g, 1-(4-Methoxyphenyl)-3-methyl-8-(pyridin-4-yl)-1H-imidazo[4,5-c]quinolin-2(3H)-one] | – | – | did not significantly alter cell cycle progression | inhibited endocytosis dramatically | almost complete absence of all phosphorylated PIs | – | 3.03 | – |
| CC(C)(C#N)c1ccc(Nc2c(N)cnc3ccc(-c4cnc5ccccc5c4)cc23)cc1 [Compound 20, 2-(4-((3′-Amino-[3,6′-biquinolin]-4′-yl)amino)phenyl)-2-methylpropanenitrile] | – | – | – | – | – | – | – | 0.767 |
